Read-outs that look alike come from different tables or passages of the source.
Assays:
SKOV3 cancer cells = assay: Cell viability (CellTiter-Glo) on adherent SKOV3 cancer cells; assay type: cell-based, human
Description: Cell Cultures Human ovarian carcinoma cell lines HEY A8 and SKOV3 were gifts from Professor Alice Wong's group (The University of Hong Kong). Cells were grown in Dulbecco's Modified Eagle (DMEM) medium supplemented with 10% FBS and 1% penicillin/streptomycin at 37° C. in a humidified atmosphere containing […] CO2. Isolation and culture of spheres were performed in serum-free stem-cell-selective condition as described in literature Ip etl. Oncogene 2014, 5, 9133-9149. Briefly, 1-2 weeks after plating, non-adherent spherical clusters of cells could be observed and were separated from single cells by low speed centrifugation. After 8th to 10th passages, the non-adherent spherical clusters of cells appeared as distinct spheres. Using this selection condition, HEY A8 spheres (HEY A8 SP) or SKOV3 spheres (SKOV3 SP) could be enzymatically dissociated and reformed into spheres within 3 days under stem-cell-selective condition. To allow differentiation, dissociated sphere cells were plated on tissue culture plates in medium (MCDB 105:M199=1:1) supplemented with 10% FBS and 1% PS.
HEY A8 or SKOV3 cancer Cells were plated in triplicate in 0.1 mL full medium in 96-well plates for 24 h. After that, the medium was changed to the fresh prepared medium with various concentrations of compounds. Cells were incubated for another 48 h. Then the cell viability was measured by CellTiter-Glo® Luminescent Cell Viability reagent according to the manufacture's instruction. The luminescence at 550 nm was measured using a microplate reader (SpectraMax 340PC 384, Molecular Devices).

HEK293 = assay: Toxicity against normal cell line HEK293; assay type: cell-based
Description: Fourteen compounds including aminoxy acid monomers and dipeptides have been identified to show toxicity against HEY A8 CSCs. The half maximal inhibitory concentration (IC50) values of compounds sff-2-112, sff-2-124, sff-2-132 and sff-2-100 towards adherent cancer HEY A8, SKOV3 cells and CSCs were further determined. […] Especially compound sff-2-132, its selectivity to CSCs is up to 60-fold higher than that to cancer cells. Their toxicity against other normal cell lines NIH3T3, HEK293 and MDCK were also tested and the IC50 values were summarized in Table 1.

HEY A8 cells [1] = assay: Population of CD133+ cells by flow cytometry (PE-conjugated CD133 antibody); assay type: cell-based, human; details: 15 μM; for population of CD133+ cells after treatment: control 21.8%
Description: CD133 has been reported to be a marker of ovarian CSCs. After cells treated with synthetic molecule, the population of CD133^+ cells were measured. HEY A8 cells were treated with taxol (100 nM), compound sff-2-112 (“Example 1”) or sff-2-132 (“Example 4”) at the concentration of 15 μM. Medium containing 0.1% DMSO was used as a negative control.
A suspension of HEY A8 cells at the concentration of 2.5×10^4 cells/mL in DMEM medium were seeded into 60-mm cell culture dishes. Cells were incubated at 37° C. in a humidified atmosphere containing 5% CO2 for 24 h, followed by the addition of 4 mL fresh medium or medium containing Paclitaxel (100 nM), sff-2-112 (15 μM) or compound sff-2-132 (15 μM). Medium containing 0.1% DMSO was used as a negative control. After 3 days, the medium was removed and cells were washed with cold PBS twice, and then stained with PE-conjugated CD133 antibody according to the manufacture's instruction. The fluorescence was analyzed by flow cytometry.

HEY A8 cells [2] = assay: Mitochondrial membrane potential (JC-1 red to green ratio); assay type: cell-based, human; details: for mitochondrial membrane potential, kinetic study: 10 μM added at 180 s, image interval 30 s; for mitochondrial membrane potential depolarization: treated 10 min, FIG. 8a
Description: A suspension of HEY A8 cells at the concentration of 5×10^4 cells/mL in DMEM medium were seeded into 30-mm cell culture dishes with glass bottom (MatTek). Cells were incubated at 37° C. in a humidified atmosphere containing 5% CO2 for 24 h. Medium was aspirated and cells was washed with PBS buffer twice. Then 1 mL HBSS buffer containing 2.5 μM JC-1 was added. Cells were incubated at 37° C. for 20 min before the buffer was aspirated. Cells were washed with PBS buffer twice and treated with cation transporters for 10 min. Fluorescence was monitored by confocal imaging with ZEISS LSM 780 (Red channel: λex=543 nm, Green channel: λex=488 nm). Quantitative data were obtained using the ZEN and Graph Pad Prism software packages.
The Kinetic study of this compound on the MMP in HEY A8 cells was also conducted. Compound sff-2-112 (“Example 1”) or sff-2-132 (“Example 4”) at the final concentration of 10 μM was added at 180 s. The interval for each image was 30 s. The decrease in red to green fluorescence ratio of JC-1 indicates MMP depolarization.

HEY A8 cells [3] = assay: Superoxide production (HKSOX-2m fluorescence); assay type: cell-based, human; details: 5 μM, within 30 min
Description: The ability of compound sff-2-112 (“Example 1”) or sff-2-132 (“Example 4”) to induce ROS production was also evaluated on HEY A8 cells (FIG. 9). The ROS production was monitored by superoxide fluorescent probe HKSOX-2m. The increase in fluorescence intensity indicated superoxide production. (n=50-100 cells).
A suspension of HEY A8 cells at the concentration of 5×10^4 cells/mL in DMEM medium were seeded into 30-mm cell culture dishes with glass bottom (MatTek). Cells were incubated at 37° C. in a humidified atmosphere containing 5% CO2 for 24 h. Medium was aspirated and cells was washed with PBS buffer twice. Then 1 mL HBSS buffer containing 4 μM HKSOX-2m was added. Cells were incubated at 37° C. for 30 min before the buffer was aspirated and washed twice with HBSS buffer. Cells were imaged in 0.8 mL HBSS buffer. Fluorescence was monitored by confocal microscope (ZEISS LSM 710; Red channel: λex=543 nm). At t=180 s, compound in 0.2 mL HBSS buffer was added to give the final concentration of 5 μM. Quantitative data were obtained using the ZEN and GraphPad Prism software.

IC50 (SKOV3 cancer cells; Homo sapiens, SK-OV-3, 48 h incubation) [µM] | Structure (SMILES) | IC50 (SKOV3 cancer cells; 48 h incubation) [µM] | IC50 (HEK293) [µM] | population of CD133+ cells relative to DMSO treated group (HEY A8 cells [1]) | population of CD133+ cells after treatment (HEY A8 cells [1]; 3 days) [%] | mitochondrial membrane potential, kinetic study (HEY A8 cells [2]) | mitochondrial membrane potential depolarization (HEY A8 cells [2]) | increasement of superoxide production (HEY A8 cells [3]) | IC50 (HEK293; Homo sapiens, HEK293) [µM] | decrease of CD133+ population (HEY A8 cells [1]; 3 days, from 21.8%)
– | O=C(NO[C@H](COCc1ccccc1)C(=O)Nc1ccccc1)c1cc(C(F)(F)F)cc(C(F)(F)F)c1 [sff-2-112] | 42.1 ± 5.2 | 51 ± 1 | significantly reduced the population of CD133^+ cells | 12.6 | MMP depolarized immediately | effectively depolarize mitochondrial membrane potential (MMP) of HEY A8 cells in a dose dependent manner | about 2 fold | – | –
63.4 ± 8.9 | CC(C)(C)OC(=O)[C@@H](COCc1ccccc1)ONC(=O)c1cc(C(F)(F)F)cc(C(F)(F)F)c1 [sff-2-132] | – | – | significantly reduced the population of CD133^+ cells | 1.9 | MMP depolarized immediately | effectively depolarize mitochondrial membrane potential (MMP) of HEY A8 cells in a dose dependent manner | about 2 fold | 70.3 ± 1.7 | around 10 fold

Source: patent publication US12539284B2, “Aminoxy acid-based anti-cancer stem cell compounds and methods thereof” (Westlake University, priority 2019, dated 2026)
